In patent publication US4191760A, “Dibenzodiazepines” (Abbott Laboratories, priority 1978, dated 1980):

What was measured:
[1] = tested on: Methamphetamine induced hyperactivity; test: Antagonism of Methamphetamine induced hyperactivity in rats; assay type: in vivo, Male Long-Evans black hooded rats; details: one hour prior to Methamphetamine 1 mg./kg. intraperitoneal; for ED50: Rattus norvegicus, oral, activity counts at one and two hour intervals, read with sign (+)/(-); for potentiation (+) or antagonism (-) of Methamphetamine: oral 5, 20 and 80 mg./kg., sign printed beside the oral ED50
Experimental: Effectiveness of Drug Compound on Inhibiting Methamphetamine Antagonism in Rats
Male Long-Evans black hooded rats, weighing between 100 and 150 grams, were administered the test drugs at oral doses of 5, 20 and 80 mg./kg. one hour prior to the administration of Methamphetamine at an intraperitoneal dose of 1 mg./kg. Three animals were tested at each dose level. […] Antagonism of Methamphetamine induced hyperactivity was recorded as digital counts received from the photocells at one and two hour intervals. Placebo controls received a volume dose of the 0.5 carboxymethylcellulose vehicle. The data were evaluated by a one-way analysis of variance computer program.
In the results, a (+) indicates a potentiation of Metamphetamine and a (-) is antagonism of Metamphetamine.

[2] = tested on: brain homovanillic acid (HVA); test: Effect of Drug Compounds on Brain Level of Homovanillic Acid (HVA); assay type: in vivo, male Long Evans rats; details: brain HVA as ratio to control group (control 1.0); 0.15 mmoles/kg intraperitoneally; brains minus cerebella two or three hours later; ratios greater than 1.6 of practical significance
Experimental: Effect of Drug Compounds on Brain Level of Homovanillic Acid (HVA)
In testing for the effectiveness of the present drug compounds on the brain level of homovanillic acid (HVA), the drugs were administered intraperitoneally to male Long Evans rats (Simonsen) usually as aqueous solutions but in certain cases as suspensions in 0.5% methocel in 0.9% saline. The standard testing dose was 0.15 mmoles/kg body weight. The test and control groups consisted of 3-5 and 5 animals, respectively. The analyses were performed on brains (minus cerebella) removed two or three hours later. In the analyses, standard extraction and fluorimetric methods were used.

Compound	ED50 [1] [mg/kg]	potentiation (+) or antagonism (-) of Methamphetamine [1]	HVA Ratio [2]
Clc1ccc2c(c1)N=C(N1CCCN(C3CC3)CC1)c1ccccc1N2 [IX, 8-Chloro-11-(4-cyclopropyl-1-homopiperazinyl)-5H-dibenzo[b,e][1,4]diazepine]	5	+	0.9
Clc1ccc2c(c1)N=C(N1CCN(C3CC3)CC1)c1ccccc1N2 [VII, 8-Chloro-11-(4-cyclopropyl-1-piperazinyl)-5H-dibenzo[b,e][1,4]diazepine]	60	-	1.1
Clc1ccc2c(c1)N=C(N1CCN(CC3CC3)CC1)c1ccccc1N2 [VI, 8-Chloro-11-(4-cyclopropylmethyl-piperazinyl)-5H-dibenzo[b,e][1,4]diazepine]	80	+	3.4
CN1CCCN(C2=Nc3cc(Cl)ccc3Nc3ccccc32)CC1 [X, 8-Chloro-11-(4-methyl-1-homopiperazinyl)-5H-dibenzo[b,e][1,4]diazepine]	9	+	1.0
C#CCN1CCN(C2=Nc3cc(Cl)ccc3Nc3ccccc32)CC1 [VIII, 8-Chloro-11-(4-propargyl-1-piperazinyl)-5H-dibenzo[b,e][1,4]diazepine]	5	+	0.9
Clc1ccc2c(c1)N=C(N1CCCN(CC3CC3)CC1)c1ccccc1N2 [XII, 8-Chloro-11-(4-cyclopropylmethyl-1-homopiperazine)-5H-dibenzo[b,e][1,4]diazepine]	80	+	0.9
O=CN1CCCN(C2=Nc3cc(Cl)ccc3Nc3ccccc32)CC1 [XI, 8-Chloro-11-(4-formyl-1-homopiperazinyl)-5H-dibenzo[b,e][1,4]diazepine]	80	+	1.0
